# Experimental data taken from patent publication US20230364118A1, “RIBITOL TREATMENT” (priority 2020, published 2023).
# Where two headings read alike, the source gives them in different places.
# Experiment: Phase 1 SAD/MAD study in healthy subjects
# Type: in vivo, human
# Details: for Cmax / Tmax / AUC(0-t): human, in vivo, oral, steady state, 6 days; for AUC(0-t): read-out: AUC(0-24)
# Excerpt: The study described below is a randomized, blinded, placebo-controlled, parallel group study of the administration of single ascending doses (SAD) and multiple ascending doses (MAD) of ribitol to healthy subjects. The SAD part of this study includes 1 food effect (FE) cohort. The SAD and MAD phases of the study are nested.
# Up to a maximum of 6 cohorts will be enrolled. The starting dose will be 0.5 g. Tentative dose levels will be 1.5 g, 3 g, 6 g, and 12 g, however, actual dose increments (including possible decrements) for Cohorts 2 and above will be determined by the safety review committee (SRC) and based on a minimum of 24 h of post dose PK data and at least 72 h post dose safety data from the previous dose level. A sentinel dosing plan will be employed at each dose level where the first 2 healthy participants (1 ribitol, 1 placebo) of each cohort will be dosed as sentinels at least 24 h prior to dosing the remaining cohort's participants. Once the informed consent form (ICF) is signed and eligibility criteria are determined, subjects will be admitted to the clinical research unit (CRU) 1 day prior to dosing (Day −1). Continuous cardiac monitoring using telemetry will be performed starting at least 12 h prior to dosing through at least 24 h after dosing.
# Subjects will be admitted to the CRU 1 day prior to dosing (Day −1). On Day 1, subjects will start a 6-day course of orally administered daily study drug together with water after an overnight fast of at least 10 h prior to through at least 4 h after dosing. If dosing occurs more than once per day based on the data from the SAD cohort(s), instructions for dosing and any relaxation of the fasting requirements will be provided in a separate document. Water ad libitum is permitted except 1 h prior to through 1 h after dosing. Subjects will remain in the CRU until Day 8. Vital signs, ECGs, evaluation of AEs and blood draws for PK and safety laboratory tests will be obtained serially (see Schedule of Assessments, below). Subjects will return for an EOS visit on Day 10 (+5 day window allowed).
# In the Phase 1 study, conducted essentially as described above, in Example 3. Subject in the single dose arm received 0.5, 1.5, 3, 6, 9, 12, or 15 grams of ribitol (data not shown). […] Subjects in the multiple dose arm received 1.5 g once daily, 3 g once daily, 3 g twice daily (q 12 h), 6 g twice daily (q 12 h), and 9 g twice daily (q 12 h). Subjects in the 3 g BID arm achieved steady-state AUC(0-24) values about the target threshold set by animal studies (182 μg*h/mL).
# Clinical studies were performed as described in Example 3, with the exception that two additional doses of ribitol (9 g and 15 g) were administered in the SAD arm, i.e., the SAD doses were 0.5 g, 1.5 g, 3 g, 6 g, 9 g, 12 g, and 15 g ribitol.
# [1] = 3 g, 3 g q 12 h (total 6 g/day)
# [2] = 6 g q 12 h, 6 g q 12 h (total 12 g/day)
# [3] = 9 g, 9 g q 12 h (total 18 g/day)
# [4] = single doses 0.5, 1.5, 3, 6, 9, 12, 15 g
structure (smiles),measurement,setting,value
"OC[C@@H](O)[C@@H](O)[C@@H](O)CO [ribitol, (2R,3s,4S)-Pentane-1,2,3,4,5-pentol]",dose linearity with exposure,SAD 0.5-15 g,confirmed dose linearity with exposure
same,Cmax,"1.5 g, 1.5 g once daily",25000 ng/mL
same,Tmax,"1.5 g, 1.5 g once daily",30.2 min
same,AUC(0-t),"1.5 g, 1.5 g once daily",59.8 µg·h/mL
same,Cmax,"3 g, 3 g once daily",35600 ng/mL
same,Tmax,"3 g, 3 g once daily",30.2 min
same,AUC(0-t),"3 g, 3 g once daily",95 µg·h/mL
same,Cmax,[1],38000 ng/mL
same,Tmax,[1],30.1 min
same,AUC(0-t),[1],219 µg·h/mL
same,Cmax,[2],107000 ng/mL
same,Tmax,[2],45 min
same,AUC(0-t),[2],500 µg·h/mL
same,Cmax,[3],143000 ng/mL
same,Tmax,[3],30.1 min
same,AUC(0-t),[3],673 µg·h/mL
same,dose limiting toxicity,[4],no dose limiting toxicity was observed
same,tolerability,[4],well tolerated
